Assay results taken from patent publication US3984415A, “1-Nitrophenylpyrido [2,3-d] pyrimidine-2,4(1H,3H)-diones” (Hisamitsu Pharmaceutical Co., Inc., priority 1973, dated 1976).
Like-named read-outs stand apart in the source and are kept apart here.

How the values were obtained:
[1] = Anti-inflammatory effect (carrageenin edema of hind paw); assay type: in vivo, Wistar-strain male rats; details: Rattus norvegicus, po, read-out: anti-inflammatory effect (inhibition percentage of carrageenin edema)
Protocol: 2. Anti-inflammatory effect
A group of five Wistar-strain male rats (100-150 g) were orally administered with each test compound suspended in 0.5 % tragacanth-saline solution. After 30 minutes 0.5 %-1.0 % carrageenin suspended in the water for injection was injected subcutaneously to a hind paw. After 3 hours the carrageenin edema was measured by volume and the inhibition percentage was determined with respect to the results for the control animals. The inhibition percentages were shown with the notations as follows: […]

dd-strain male mice = details: 72 hours
Protocol: The lethal dose was estimated from the death of animals 72 hours after administration.

[2] = Analgetic effect (acetic acid writhing syndrome); assay type: in vivo, dd-strain male mice; details: Mus musculus, po; orally, mice, acetic acid writhing
Protocol: Each test compound suspended in 0.5 % tragacanth-saline solution was orally administered to dd-strain male mice (18-20 g). After one hour 0.6% acetic acid solution was intraperitoneally injected in a volume of 0.1 ml/10 g.

[3] = dose 10 mg/kg, orally, rats, 3 hours
[4] = dose 50 mg/kg, orally, rats, 3 hours

Compound | inhibition in vivo at 10 mg/kg [1, 3] | inhibition in vivo at 20 mg/kg ([1]; orally, rats, 3 hours) | inhibition in vivo at 50 mg/kg [1, 4] | inhibition in vivo at 100 mg/kg ([1]; orally, rats, 3 hours) | acute toxicity (lethal dose) (dd-strain male mice; i.p.) | acute toxicity (lethal dose) (dd-strain male mice; p.o.) | ED50 [2] | inhibition in vivo at 10 mg/kg ([1]; 3 h) | inhibition in vivo at 50 mg/kg ([1]; 3 h)
CCn1c(=O)c2cccnc2n(-c2cccc(C(F)(F)F)c2)c1=O [--C2 H5, reference compound] | 46 to 60% | 46 to 60% | > 61% | > 61% | 600 mg/kg | 665 mg/kg | 10 mg/kg |  | 
CCCn1c(=O)c2cccnc2n(-c2cccc(Br)c2)c1=O [--CH2 CH2 CH3, reference compound] | 46 to 60% | 31 to 45% | 46 to 60% | > 61% | > 1000 mg/kg |  | 20 mg/kg |  | 
Cn1c(=O)c2cccnc2n(-c2cccc(Cl)c2)c1=O [--CH3, reference compound] | 31 to 45% | 46 to 60% | 46 to 60% | 46 to 60% | > 1000 mg/kg | > 1000 mg/kg | 7.1 mg/kg |  | 
Cn1c(=O)c2cccnc2n(-c2cccc([N+](=O)[O-])c2)c1=O [Compound 2, 1-(m-nitrophenyl)-3-methylpyrido[2,3-d]pyrimidine-2,4(1H,3H)-dione] | 46 to 60% | 46 to 60% | > 61% | > 61% |  |  | 0.175 mg/kg |  | 
CCn1c(=O)c2cccnc2n(-c2cccc([N+](=O)[O-])c2)c1=O [Compound 3, 1-(m-nitrophenyl)-3-ethylpyrido[2,3-d]pyrimidine-2,4(1H,3H)-dione] | > 61% | > 61% | > 61% |  |  |  | 0.113 mg/kg |  | 
CCCn1c(=O)c2cccnc2n(-c2cccc([N+](=O)[O-])c2)c1=O [Compound 4] | 46 to 60% | 46 to 60% | 31 to 45% | 46 to 60% | 1000 mg/kg | > 2000 mg/kg | 2.6 mg/kg |  | 
CC(C)n1c(=O)c2cccnc2n(-c2cccc([N+](=O)[O-])c2)c1=O [Compound 5] | 46 to 60% | 46 to 60% | 46 to 60% | > 61% | > 1000 mg/kg |  | 2.15 mg/kg |  | 
CC(C)Cn1c(=O)c2cccnc2n(-c2cccc([N+](=O)[O-])c2)c1=O [Compound 7] |  | 31 to 45% | 31 to 45% | 31 to 45% | 1000 mg/kg | > 2000 mg/kg | 3.1 mg/kg |  | 
C=CCn1c(=O)c2cccnc2n(-c2cccc([N+](=O)[O-])c2)c1=O [Compound 9, 1-(m-nitrophenyl)-3-allylpyrido[2,3-d]pyrimidine-2,4(1H,3H)-dione] | > 61% | 46 to 60% | > 61% | > 61% |  | > 2000 mg/kg | 2.6 mg/kg |  | 
CC(C)=CCn1c(=O)c2cccnc2n(-c2cccc([N+](=O)[O-])c2)c1=O [Compound 10] | 31 to 45% | 31 to 45% | > 61% | 46 to 60% |  | > 2000 mg/kg | 0.43 mg/kg |  | 
C#CCn1c(=O)c2cccnc2n(-c2cccc([N+](=O)[O-])c2)c1=O [Compound 12] | 46 to 60% | 46 to 60% | 46 to 60% | > 61% | > 1000 mg/kg | > 2000 mg/kg | 1.15 mg/kg |  | 
O=c1c2cccnc2n(-c2cccc([N+](=O)[O-])c2)c(=O)n1CCCl [Compound 14] | 46 to 60% | > 61% | 46 to 60% | > 61% | > 1000 mg/kg | > 2000 mg/kg | 0.19 mg/kg |  | 
O=c1c2cccnc2n(-c2cccc([N+](=O)[O-])c2)c(=O)n1CCF [Compound 15] | > 61% | 46 to 60% | > 61% | 46 to 60% |  | 2000 mg/kg | ~0.01 mg/kg |  | 
O=c1c2cccnc2n(-c2cccc([N+](=O)[O-])c2)c(=O)n1CC(F)(F)F [Compound 16, 1-(m-nitrophenyl)-3-(2,2,2-trifluoroethyl)pyrido[2,3-d]pyrimidine-2,4(1H,3H)-dione] | 46 to 60% | > 61% | 46 to 60% | 46 to 60% | > 1000 mg/kg | > 2000 mg/kg | 1.28 mg/kg |  | 
O=c1c2cccnc2n(-c2cccc([N+](=O)[O-])c2)c(=O)n1CCO [Compound 18, 1-(m-nitrophenyl)-3-(2-hydroxyethyl)pyrido[2,3-d] pyrimidine-2,4(1H,3H)-dione] |  |  | 31 to 45% | 31 to 45% | > 1000 mg/kg | > 2000 mg/kg | 0.42 mg/kg |  | 
O=c1c2cccnc2n(-c2cccc([N+](=O)[O-])c2)c(=O)n1CCCO [Compound 19] | 31 to 45% | 46 to 60% | 46 to 60% | > 61% | > 1000 mg/kg | > 2000 mg/kg | ~1 mg/kg |  | 
CC(=O)OCCn1c(=O)c2cccnc2n(-c2cccc([N+](=O)[O-])c2)c1=O [Compound 21] |  |  | 16 to 30% | 31 to 45% | > 1000 mg/kg | 2000 mg/kg | 0.16 mg/kg |  | 
CCOCCn1c(=O)c2cccnc2n(-c2cccc([N+](=O)[O-])c2)c1=O [Compound 23] | 31 to 45% | 46 to 60% | 46 to 60% | 31 to 45% | > 1000 mg/kg |  | 0.168 mg/kg |  | 
O=C(O)Cn1c(=O)c2cccnc2n(-c2cccc([N+](=O)[O-])c2)c1=O [Compound 26] |  | 16 to 30% | 31 to 45% |  | > 1000 mg/kg | > 2000 mg/kg | 33 mg/kg |  | 
O=c1c2cccnc2n(-c2cccc([N+](=O)[O-])c2)c(=O)n1CC1CC1 [O --CH2] | > 61% | > 61% | > 61% | > 61% |  |  | 0.12 mg/kg |  | 
O=c1c2cccnc2n(-c2cccc([N+](=O)[O-])c2)c(=O)n1Cc1ccccc1 [O --Ch2] | 31 to 45% | 46 to 60% | 46 to 60% | > 61% |  |  | 1.7 mg/kg |  | 
CN1C(=O)CN=C(c2ccccc2)c2cc(Cl)ccc21 [diazepam, reference compound] |  |  |  |  |  |  |  | < 15% | 16 to 30%
CCCCC1C(=O)N(c2ccccc2)N(c2ccccc2)C1=O [phenylbutazone, reference compound] | < 15% |  | 31 to 45% |  |  |  | 290 mg/kg |  | 
